Measurements from patent US20260250290A1 (BRISTOL-MYERS SQUIBB COMPANY, priority 2023, published 2026).

target: T1, full length SGK1 (Homo sapiens, UniProt O00141); assay: SGK1 inhibition Assay A (Caliper LabChip electrophoretic separation of fluorescent peptide substrate and phosphorylated product); format: biochemical; conditions: Assay A; 20 μM ATP, 40 min incubation; read-out: SGK1 IC50
T1 construct: 125 μM full length SGK1 (Life Technologies Part #PR7358A); purchased Life Technologies PR7358A
T1 sequence (O00141 1-431): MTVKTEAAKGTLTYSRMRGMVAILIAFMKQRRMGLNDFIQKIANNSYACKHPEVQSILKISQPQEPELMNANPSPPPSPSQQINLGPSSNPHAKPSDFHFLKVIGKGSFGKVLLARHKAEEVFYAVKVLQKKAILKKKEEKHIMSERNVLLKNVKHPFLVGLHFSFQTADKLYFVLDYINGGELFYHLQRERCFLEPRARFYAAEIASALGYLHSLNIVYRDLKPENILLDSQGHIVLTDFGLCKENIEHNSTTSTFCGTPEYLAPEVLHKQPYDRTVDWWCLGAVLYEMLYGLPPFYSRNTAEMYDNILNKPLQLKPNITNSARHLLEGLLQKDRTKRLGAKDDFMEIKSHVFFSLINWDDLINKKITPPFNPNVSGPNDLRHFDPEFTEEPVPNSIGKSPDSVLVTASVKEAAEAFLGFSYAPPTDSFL

SMILES	IC50 [nM]
CC(=O)N1CC=C(c2cc(N3CCC[C@@H](NC(=O)c4sc(Cl)cc4OC4CC5CC4CN5)C3)c3c(N)ncnn23)C1 (stereo partly drawn) [Example 606, 3-((2-azabicyclo[2.2.1]heptan-5-yl)oxy)-N-((R)-1-(7-(1-acetyl-2,5-dihydro-1H-pyrrol-3-y1)-4-aminopyrrolo[2,1-f][1,2,4]triazin-5~yl)piperidin-3-y1)-5-chlorothiophene-2-carboxamide]	9
CC(=O)N1CC=C(c2cc(N3CCC[C@@H](NC(=O)c4sc(Cl)cc4O[C@@H]4C[C@H]5CC[C@@H](C4)N5C)C3)c3c(N)ncnn23)C1 [Example 612, N—((R)-1-(7-(1-acetyl-2,5-dihydro-1H-pyrrol-3-yl)-4-aminopyrrolo[2,1-f][1,2,4]triazin-5-yl)piperidin-3-yl)-5-chloro-3-((8-methyl-8-azabicyclo[3.2.1]octan-3-yl)oxy)thiophene-2-carboxamide]	0.6
COC(=O)N1CC=C(c2cc(N3CCC[C@@H](NC(=O)c4sc(Cl)cc4O[C@@H]4C[C@H]5CC[C@@H](C4)N5C)C3)c3c(N)ncnn23)C1 [Example 613, methyl 3-(4-amino-5-((R)-3-(5-chloro-3-(((1R,3s,5S)-8-methyl-8-azabicyclo[3.2.1]octan-3-yl)oxy)thiophene-2-carboxamido)piperidin-1-yl)pyrrolo[2,1-f][1,2,4]triazin-7-yl)-2,5-dihydro-1H-pyrrole-1-carboxylate]	3
CN1[C@@H]2CC[C@H]1C[C@H](Oc1cc(Cl)sc1C(=O)N[C@@H]1CCCN(c3cc(-c4cncnc4)n4ncnc(N)c34)C1)C2 [Example 614, N—((R)-1-(4-amino-7-(pyrimidin-5-yl)pyrrolo[2,1-f][1,2,4]triazin-5-yl)piperidin-3-yl)-5-chloro-3-((8-methyl-8-azabicyclo[3.2.1]octan-3-yl)oxy)thiophene-2-carboxamide]	3
CC(=O)N1CC=C(c2cc(N3CCC[C@@H](NC(=O)c4sc(Cl)cc4OC4CCN(C5CC5)CC4)C3)c3c(N)ncnn23)C1 [Example 615, (R)—N-(1-(7-(1-acetyl-2,5-dihydro-1H-pyrrol-3-yl)-4-aminopyrrolo[2,1-f][1,2,4]triazin-5-yl)piperidin-3-yl)-5-chloro-3-((1-cyclopropylpiperidin-4-yl)oxy)thiophene-2-carboxamide]	50
COC(=O)N1CC=C(c2cc(N3CCC[C@@H](NC(=O)c4sc(Cl)cc4OC4CCN(C5CC5)CC4)C3)c3c(N)ncnn23)C1 [Example 616, methyl (R)-3-(4-amino-5-(3-(5-chloro-3-((1-cyclopropylpiperidin-4-yl)oxy)thiophene-2-carboxamido)piperidin-1-yl)pyrrolo[2,1-f][1,2,4]triazin-7-yl)-2,5-dihydro-1H-pyrrole-1-carboxylate]	6
Nc1ncnn2c(-c3cncnc3)cc(N3CCC[C@@H](NC(=O)c4sc(Cl)cc4OC4CCN(C5CC5)CC4)C3)c12 [Example 617, (R)-N-(1-(4-amino-7-(pyrimidin-5-y1)pyrrolo[2,1-f][1,2,4]triazin-5-yl)piperidin-3-y1)-5-chloro-3-((1-cyclopropylpiperidin-4-yl)oxy)thiophene-2-carboxamide]	24
CC(=O)N1CC=C(c2cc(N3CCC[C@@H](NC(=O)c4sc(Cl)cc4OC4CCN(CC(C)(C)O)CC4)C3)c3c(N)ncnn23)C1 [Example 618, (R)—N-(1-(7-(1-acetyl-2,5-dihydro-1H-pyrrol-3-yl)-4-aminopyrrolo[2,1-f][1,2,4]triazin-5-yl)piperidin-3-yl)-5-chloro-3-((1-(2-hydroxy-2-methylpropyl)piperidin-4-yl)oxy)thiophene-2-carboxamide]	9
COC(=O)N1CC=C(c2cc(N3CCC[C@@H](NC(=O)c4sc(Cl)cc4OC4CCN(CC(C)(C)O)CC4)C3)c3c(N)ncnn23)C1 [Example 619, Methyl (R)-3-(4-amino-5-(3-(5-chloro-3-((1-(2-hydroxy-2-methylpropyl)piperidin-4-yl)oxy)thiophene-2-carboxamido)piperidin-1-yl)pyrrolo[2,1-f][1,2,4]triazin-7-yl)-2,5-dihydro-1H-pyrrole-1-carboxylate]	11
COC(=O)N1CC=C(c2cc(N3CCC[C@@H](NC(=O)c4sc(Cl)cc4OC4CCNC(C)C4)C3)c3c(N)ncnn23)C1 (stereo partly drawn) [Example 624, Methyl 3-(4-amino-5-((3R)-3-(5-chloro-3-((2-methylpiperidin-4-yl)oxy)thiophene-2-carboxamido)piperidin-1-yl)pyrrolo[2,1-f][1,2,4]triazin-7-y1)-2,5-dihydro-1H-pyrrole-1-carboxylate]	7
CC(C)N1CC2(CC(Oc3cc(Cl)sc3C(=O)N[C@@H]3CCCN(c4cc(-c5ccc(C#N)c(F)c5)n5ncnc(N)c45)C3)C2)C1 [Example 631, (R)—N-(1-(4-amino-7-(4-cyano-3-fluorophenyl)pyrrolo[2,1-f][1,2,4]triazin-5-yl)piperidin-3-yl)-5-chloro-3-((2-isopropyl-2-azaspiro[3.3]heptan-6-yl)oxy)thiophene-2-carboxamide]	3
Nc1ncnn2c(-c3ccnc(C(F)F)c3)cc(N3CCC[C@@H](NC(=O)c4sc(Cl)cc4OC4CNC4)C3)c12 [Example 632, (R)-N-(1-(4-amino-7-(2-(difluoromethyl)pyridin-4-yl)pyrrolo[2,1-f][1,2,4]triazin-5-y1)piperidin-3-y1)-3-(azetidin-3-yloxy)-5-chlorothiophene-2-carboxamide]	8
CC(=O)N1CC=C(c2cc(N3CCC[C@@H](NC(=O)c4sc(Cl)cc4OC4CNC4)C3)c3c(N)ncnn23)C1 [Example 633, (R)-N-(1-(7-(1-acetyl-2,5-dihydro-1H-pyrrol-3-yl)-4-aminopyrrolo[2,1-f][1,2,4]triazin-5-yl)piperidin-3-yl)-3-(azetidin-3-yloxy)-5-chlorothiophene-2-carboxamide]	6
COC(=O)N1CC=C(c2cc(N3CCC[C@@H](NC(=O)c4sc(Cl)cc4OCC4CNC4)C3)c3c(N)ncnn23)C1 [Example 634, Methyl (R)-3-(4-amino-5-(3-(3-(azetidin-3~ylmethoxy)-5-chlorothiophene-2-carboxamido)piperidin-1-y1)pyrrolo[2,1-f][1,2,4]triazin-7-y1)-2,5-dihydro-\H-pyrrole-1-carboxylate]	18
N#Cc1ccc(-c2cc(N3CCC[C@@H](NC(=O)c4sc(Cl)cc4OCC4CNC4)C3)c3c(N)ncnn23)cn1 [Example 635]	7
CC(=O)N1CC=C(c2cc(N3CCC[C@@H](NC(=O)c4sc(Cl)cc4OC4CCNC4)C3)c3c(N)ncnn23)C1 (stereo partly drawn) [Example 636, N-((R)-1-(7-(1-acetyl-2,5-dihydro-1H-pyrrol-3-yl)-4-aminopyrrolo[2,1-f][1,2,4]triazin-5-yl)piperidin-3-y1)-5-chloro-3-(pyrrolidin-3-yloxy)thiophene-2-carboxamide]	5
N#Cc1ccc(-c2cc(N3CCC[C@@H](NC(=O)c4sc(Cl)cc4OC4CCNC4)C3)c3c(N)ncnn23)cn1 (stereo partly drawn) [Example 637, N-((R)-1-(4-amino-7-(6-cyanopyridin-3-yl)pyrrolo[2,1-f][1,2,4]triazin-5-yl)piperidin-3-y1)-5-chloro-3-(pyrrolidin-3-yloxy)thiophene-2-carboxamide]	12
CC(=O)N1CC=C(c2cc(N3CCC[C@@H](NC(=O)c4sc(Cl)cc4OCC4CCNCC4)C3)c3c(N)ncnn23)C1 [Example 640, (R)-N-(1-(7-(1-acetyl-2,5-dihydro-1H-pyrrol-3-yl)-4-aminopyrrolo[2,1-f][1,2,4]triazin-5-y1)piperidin-3-y1)-5-chloro-3-(piperidin-4-ylmethoxy)thiophene~2-carboxamide]	8
N#Cc1ccc(-c2cc(N3CCC[C@@H](NC(=O)c4sc(Cl)cc4OCC4CCNCC4)C3)c3c(N)ncnn23)cn1 [Example 641, (R)-N-(1-(4-amino-7-(6~cyanopyridin-3-y1)pyrrolo[2,1-f][1,2,4]triazin-5-y1)piperidin-3-yl)-5-chloro-3-(piperidin-4-ylmethoxy)thiophene-2-carboxamide]	0.9
NC(=O)c1ccc(-c2cc(N3CCC[C@@H](NC(=O)c4sc(Cl)cc4OCC4CCNCC4)C3)c3c(N)ncnn23)cc1F [Example 642, (R)-N-(1-(4-amino-7-(4-carbamoyl-3-fluorophenyl)pyrrolo[2,1-f][1,2,4]triazin-5-y1)piperidin-3-y1)-5-chloro-3-(piperidin-4-ylmethoxy)thiophene-2-carboxamide]	4
CN1CCC(COc2cc(Cl)sc2C(=O)N[C@@H]2CCCN(c3cc(-c4cncnc4)n4ncnc(N)c34)C2)CC1 [Example 643, (R)-N-(1-(4-amino-7-(pyrimidin-5-yl)pyrrolo[2,1-f][1,2,4]triazin-5-y1)piperidin-3-y1)-5-chloro-3-((1-methylpiperidin-4-yl)methoxy)thiophene-2-carboxamide]	8
NC(=O)c1ccc(-c2cc(N3CCC[C@@H](NC(=O)c4sc(Cl)cc4OCC4CCNCC4)C3)c3c(N)ncnn23)cn1 [Example 644, (R)-5-(4-amino-5-(3-(5-chloro-3-(piperidin-4-ylmethoxy)thiophene-2-carboxamido)piperidin-1-y1)pyrrolo[2,1-f][1,2,4]triazin-7-y1)picolinamide]	0.4
Nc1ncnn2c(-c3ccnc(C(F)F)c3)cc(N3CCC[C@@H](NC(=O)c4cc5ccccc5s4)C3)c12 [Example 645, (R)-N-(1-(4-amino-7-(2-(difluoromethyl)pyridin-4-y1)pyrrolo[2,1-f][1,2,4]triazin-5-y1)piperidin-3-yl)benzo[b]thiophene-2-carboxamide]	4
